Paper PMC9867526, “Drug Metabolism of Hepatocyte-like Organoids and Their Applicability in In Vitro Toxicity Testing” (Molecules, 2023)

Tests used:
PHH = test: Cytotoxicity (CellTiter-Glo ATP viability) in primary human hepatocytes, 48 h exposure; format: cell-based; conditions: Hepatocyte
Procedure: LiverPool cryoplateable hepatocytes (pool of 10 donors, mixed gender; BioIVT, Hicksville, NY, USA) were cultured in a collagen I (Sigma-Aldrich, St Louis, MO, USA) sandwich in INVITROGRO CP medium (BioIVT) complemented with the TORPEDO Antibiotic mix (BioIVT). Seeding density was 49,000 cells/well in a 96-well plate (cytotoxicity assay) or 350,000 cells/well in a 24-well plate (CYP activity assay), according to the manufacturer’s instructions. Exposure of the hepatocytes was started 48 h after seeding. For exposure assays, INVITROGRO HI medium (BioIVT) was used, as recommended. Cells plated in 96-well plates were exposed to a concentration range (six concentrations in 2x dilution) of five known hepatotoxic compounds for 48 h (single dose). Acetaminophen (CAS 103-90-2; 30 mM) and valproic acid (CAS 1069-66-5; 10 mM) were directly dissolved in assay medium (previously described for each hepatic cell model). […] For the latter, vehicle control (0.5% (v/v) DMSO) was used in the exposure experiments. All chemicals were obtained from Sigma-Aldrich, unless stated otherwise. […] The viability of exposed cells was determined by cellular ATP levels using the CellTiter-Glo Luminescent Cell Viability Assay (Promega, Madison, WI, USA). The CellTiter Glo reagent was prepared according to the manufacturer’s instructions. Briefly, the culture plate was equilibrated at room temperature for 30 min. Medium was removed from the plate, after which phosphate-buffered saline (PBS) and the CellTiter Glo reagent were added to each well in equal volumes. The plate was mixed for 2 min on an orbital shaker and incubated for an additional 10 min at room temperature. Luminescence was measured on the TriStar2 (Berthold Technologies, Bad Wildbad, Germany), and samples were normalized to (vehicle) control.

HL-ICOs = test: Cytotoxicity (CellTiter-Glo ATP viability) in hepatocyte-like intrahepatic cholangiocyte organoids, 48 h exposure; format: cell-based, human
Procedure: The cell suspension was cultured in MatrigelTM (Corning, New York, NY, USA) droplets in expansion medium (EM) until organoids were formed, as previously described. EM consisted of Advanced DMEM/F12 (Life Technologies) supplemented with 1% (v/v) penicillin-streptomycin (Life Technologies), 1% (v/v) GlutaMax (Life Technologies), 10 mM HEPES (4-(2-hydroxyethyl)-1-piperazineethanesulfonic acid, Life Technologies), 2% (v/v) B27 supplement without vitamin A (Invitrogen, Carlsbad, CA, USA), 1% (v/v) N2 supplement (Invitrogen), 10 mM nicotinamide (Sigma-Aldrich, St Louis, MO, USA), 1.25 mM N-acetylcysteine (Sigma-Aldrich), 10% (v/v) R-spondin-1 conditioned medium (the Rspo1-Fc-expressing cell line was a kind gift from Calvin J. Kuo), 10 μM forskolin (Sigma-Aldrich), 5 μM A83-01 (transforming growth factor beta inhibitor; Tocris Bioscience, Bristol, UK), 50 ng/mL EGF (Invitrogen), 25 ng/mL HGF (Peprotech, Rocky Hill, NJ, USA), 0.1 μg/mL FGF10 (Peprotech) and 10 nM recombinant human ([…])-gastrin I (Sigma-Aldrich). Medium was changed twice a week. Passaging occurred every 7-10 days at ratios ranging between 1:2 and 1:4. All cultures were kept in a humidified atmosphere of 95% air and 5% CO2 at 37 °C. Organoids were primed for differentiation with BMP7 (25 ng/mL, Peprotech) through spiking EM 3 days before shifting to hepatic differentiation medium (DM). DM consisted of EM without R-spondin-1, FGF10, and nicotinamide, supplemented with 100 ng/mL FGF19 (Peprotech), 500 nM A83-01 (Tocris Bioscience), 10 μM DAPT (Selleckchem, Munich, Germany), 25 ng/mL BMP-7 (Peprotech), and […] (Sigma-Aldrich). Organoids were kept on DM for up to 12 days. For exposure experiments, differentiation assay medium was prepared to reduce antioxidants in the medium. This assay medium consisted of DMEM GlutaMAX instead of DMEM-F12 medium complemented with the same components as differentiation medium excluding GlutaMAX, B27, and NAC. In 96-well format (cytotoxicity assay), 12,000 cells in 9 μL Matrigel per well were plated at the start of differentiation, and exposure was started at day 10 of differentiation for 48 h. In 24-well format (CYP activity assay), cells were densely plated in a fresh Matrigel droplet (50 μL) upon the start of differentiation, and cells were exposed to the CYP substrate cocktail on day 12 of differentiation. […] Cells plated in 96-well plates were exposed to a concentration range (six concentrations in 2x dilution) of five known hepatotoxic compounds for 48 h (single dose). Acetaminophen (CAS 103-90-2; 30 mM) and valproic acid (CAS 1069-66-5; 10 mM) were directly dissolved in assay medium (previously described for each hepatic cell model). […] For the latter, vehicle control (0.5% (v/v) DMSO) was used in the exposure experiments. All chemicals were obtained from Sigma-Aldrich, unless stated otherwise. […] The viability of exposed cells was determined by cellular ATP levels using the CellTiter-Glo Luminescent Cell Viability Assay (Promega, Madison, WI, USA). The CellTiter Glo reagent was prepared according to the manufacturer's instructions. Briefly, the culture plate was equilibrated at room temperature for 30 min. Medium was removed from the plate, after which phosphate-buffered saline (PBS) and the CellTiter Glo reagent were added to each well in equal volumes. The plate was mixed for 2 min on an orbital shaker and incubated for an additional 10 min at room temperature. Luminescence was measured on the TriStar2 (Berthold Technologies, Bad Wildbad, Germany), and samples were normalized to (vehicle) control.

HepaRG = test: Cytotoxicity (CellTiter-Glo ATP viability) in HepaRG cells, 48 h exposure; format: cell-based; conditions: Homo sapiens
Procedure: Undifferentiated HepaRG cells were purchased from Biopredic International (Saint Grégoire, France). Cells were cultured (passage number between p18 and p28) in T75 flasks in culture medium consisting of William’s E medium (without phenol red; Thermo Fisher Scientific, Waltham, MA, USA) supplemented with 1% (v/v) penicillin-streptomycin (Thermo Fisher Scientific), 10% (v/v) fetal bovine serum (FBS; Thermo Fisher Scientific), 50 µM hydrocortisone 21-hemisuccinate (Sigma-Aldrich, St Louis, MO, USA), 2 mM GlutaMax (Thermo Fisher Scientific) and 5 µg/mL insulin (Sigma-Aldrich). For differentiation, cells were cultured for 7–10 days and upon confluence, the monolayer was switched to differentiation medium (culture medium supplemented with 1% (v/v) DMSO). After differentiation, cells were trypsinized using TrypLE (Thermo Fisher Scientific) and seeded at a density of 65,000 cells/well in a 96-well plate (cytotoxicity assay) or 130,000 cells/well in a 24-well plate (CYP activity assay). Cells were allowed to attach for 24 to 48 h. Before exposure, cells were washed with assay medium (culture medium without FBS), after which exposure was started. Cells plated in 96-well plates were exposed to a concentration range (six concentrations in 2x dilution) of five known hepatotoxic compounds for 48 h (single dose). Acetaminophen (CAS 103-90-2; 30 mM) and valproic acid (CAS 1069-66-5; 10 mM) were directly dissolved in assay medium (previously described for each hepatic cell model). […] For the latter, vehicle control (0.5% (v/v) DMSO) was used in the exposure experiments. All chemicals were obtained from Sigma-Aldrich, unless stated otherwise. […] The viability of exposed cells was determined by cellular ATP levels using the CellTiter-Glo Luminescent Cell Viability Assay (Promega, Madison, WI, USA). The CellTiter Glo reagent was prepared according to the manufacturer’s instructions. Briefly, the culture plate was equilibrated at room temperature for 30 min. Medium was removed from the plate, after which phosphate-buffered saline (PBS) and the CellTiter Glo reagent were added to each well in equal volumes. The plate was mixed for 2 min on an orbital shaker and incubated for an additional 10 min at room temperature. Luminescence was measured on the TriStar2 (Berthold Technologies, Bad Wildbad, Germany), and samples were normalized to (vehicle) control.

[1] = PHH (pool of 10 donors, collagen I sandwich), 48 h single dose, cell viability (ATP)
[2] = Homo sapiens, 48 h, HL-ICOs, range over the four ICO donors
[3] = Homo sapiens, HL-ICOs differentiation day 12, ICO donor in first HL-ICO column, 48 h single dose, cell viability (ATP)
[4] = Homo sapiens, HL-ICOs differentiation day 12, ICO donor in fourth HL-ICO column, 48 h single dose, cell viability (ATP)
[5] = Homo sapiens, HL-ICOs differentiation day 12, ICO donor in second HL-ICO column, 48 h single dose, cell viability (ATP)
[6] = Homo sapiens, HL-ICOs differentiation day 12, ICO donor in third HL-ICO column, 48 h single dose, cell viability (ATP)
[7] = 48 h single dose, median of three independent experiments, minimum and maximum EC50 within brackets
[8] = range of three independent experiments
[9] = HL-ICOs, range over the four ICO donors, 48 h

SMILES: CCCC(CCC)C(=O)O [Valproic Acid]
- EC50 (PHH; PHH): 9880 µM
- EC50 (PHH; [1]): 9880 µM
- EC50 (HL-ICOs; [2]): > 10000 µM
- EC50 (HL-ICOs; [3]): > 10000 µM
- EC50 (HL-ICOs; [4]): > 10000 µM
- EC50 (HL-ICOs; [5]): > 10000 µM
- EC50 (HL-ICOs; [6]): > 10000 µM
- EC50 (HepaRG; [7]): 4580 µM
- EC50 (HepaRG; [8]): 4170 to 6070 µM

SMILES: O=C(O)Cc1ccccc1Nc1c(Cl)cccc1Cl [Diclofenac]
- EC50 (PHH; [1]): 421 µM
- EC50 (HL-ICOs; Homo sapiens, 48 h, HL-ICOs, the other three ICO donors, higher than highest tested concentration): > 500 µM
- EC50 (HL-ICOs; [3]): > 500 µM
- EC50 (HL-ICOs; [5]): > 500 µM
- EC50 (HL-ICOs; [6]): > 500 µM
- EC50 (HepaRG; [7]): 352 µM
- EC50 (HepaRG; [8]): 272 to 435 µM

SMILES: CC(=O)Nc1ccc(O)cc1 [Acetaminophen]
- EC50 (PHH; PHH): 4190 µM
- EC50 (PHH; [1]): 4190 µM
- EC50 (HL-ICOs; [9]): 24000 to 24900 µM
- EC50 (HL-ICOs; [2]): 24000 to 26800 µM
- EC50 (HL-ICOs; [3]): 24900 µM
- EC50 (HL-ICOs; [4]): 24000 µM
- EC50 (HL-ICOs; [5]): 24600 µM
- EC50 (HL-ICOs; [6]): 26800 µM
- EC50 (HepaRG; [7]): 4040 µM
- EC50 (HepaRG; [8]): 3460 to 6040 µM

SMILES: Cc1c(C)c2c(c(C)c1O)CCC(C)(COc1ccc(CC3SC(=O)NC3=O)cc1)O2 (stereo not shown) [Troglitazone]
- EC50 (PHH; [1]): 57.1 µM
- EC50 (HL-ICOs; [9]): 23.1 to 90.8 µM
- EC50 (HL-ICOs; [2]): 23.1 to 90.8 µM
- EC50 (HL-ICOs; [3]): 42.8 µM
- EC50 (HL-ICOs; [4]): 24.4 µM
- EC50 (HL-ICOs; [5]): 90.8 µM
- EC50 (HL-ICOs; [6]): 23.1 µM
- EC50 (HepaRG; [7]): 45.1 µM
- EC50 (HepaRG; [8]): 14.9 to 45.2 µM

SMILES: C1CCC(C(CC2CCCCN2)C2CCCCC2)CC1 (stereo not shown) [Perhexiline]
- EC50 (PHH; [1]): 8.07 µM
- cytotoxicity (HL-ICOs; HL-ICOs, three ICO donors, up to 31.5 µM, 48 h): no cytotoxicity
- EC50 (HL-ICOs; [3]): > 31.5 µM
- EC50 (HL-ICOs; [4]): > 31.5 µM
- EC50 (HL-ICOs; [5]): 9.68 µM
- EC50 (HL-ICOs; [6]): > 31.5 µM
- EC50 (HepaRG; [7]): 26 µM
- EC50 (HepaRG; [8]): 10.5 to 26.4 µM
